Entries after “also recorded” stand apart in the source; their conditions may differ.
Legend:
HEV-ORF2 [1] = experiment: Western blot of HEV ORF2; format: cell-based, Hepatitis E Virus; conditions: treated vs untreated cells, 7 days post-transfection
HEV-ORF2 [2] = experiment: Immunofluorescence assay of HEV ORF2; format: cell-based, Hepatitis E Virus; conditions: 800 μM, 7 days post-transfection; untreated 100%
Huh7 cells = experiment: Cell viability assay (MTT)
[3] = Cell viability assay (MTT); conditions: human, Huh7 cells
Influenza virus = test system: Influenza virus; design: method as in earlier work; conditions: cited from earlier work
p6 HEV-Luc Replicon = experiment: HEV replicon Renilla luciferase assay in Huh7 cells; format: cell-based, Hepatitis E Virus; conditions: for Inhibition of HEV Replicon (luciferase activity): Huh7 cells
in vitro = conditions: human, Huh7 cells
HEV-MTase [4] = target: T1, HEV-MTase (Hepatitis E virus genotype 1, UniProt P33424); experiment: MicroScale Thermophoresis (MST) binding affinity; conditions: 50 nM MTase, HPPA 10 μM to 150 pM; read-out: Dissociation constant (Kd)
T1 construct: made in house; host or cells: E. coli BL21-DE3

HEV-MTase [5] = target: T1, HEV-MTase; experiment: Cell-free inhibition of HEV-MTase activity (MTase-Glo Methyltransferase Assay); format: biochemical; conditions: 0.675 μM enzyme; for Inhibition of HEV-MTase activity: 1 μM compound

T1 sequence (P33424 33-353): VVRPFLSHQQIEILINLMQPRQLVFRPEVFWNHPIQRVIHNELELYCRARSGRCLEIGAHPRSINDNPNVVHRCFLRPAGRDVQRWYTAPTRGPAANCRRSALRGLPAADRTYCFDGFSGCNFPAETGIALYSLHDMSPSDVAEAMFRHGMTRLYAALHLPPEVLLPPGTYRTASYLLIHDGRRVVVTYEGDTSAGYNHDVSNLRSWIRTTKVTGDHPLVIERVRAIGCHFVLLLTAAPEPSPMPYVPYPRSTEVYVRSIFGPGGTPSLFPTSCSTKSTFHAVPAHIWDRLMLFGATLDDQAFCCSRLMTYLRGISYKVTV

Row | SMILES | ORF2 expression (Western blot) (HEV-ORF2 [1]) | ORF2 fluorescence level (HEV-ORF2 [2]) | Cytotoxic effects (Huh7 cells) | CC50 at 72 h [3] [µM] | Influenza virus propagation (Influenza virus) | IC50 (p6 HEV-Luc Replicon; Hepatitis E virus, Huh-7, 72 h, read-out: 50% inhibitory concentration (IC50), HEV replicon) [µM] | Inhibition of HEV Replicon (luciferase activity) (p6 HEV-Luc Replicon) | Inhibition of HEV Replicon (luciferase activity) (p6 HEV-Luc Replicon; listed as HPPA) | viability at 72 h, 18.7 µM (in vitro) [%] | Kd (HEV-MTase [4]) [µM] | IC50 (HEV-MTase [5]; 1 μM SAM, 0.5 mM GTP, 37 °C, 2 h, ligand 0 to 10 μM) [µM] | Inhibition of HEV-MTase activity (HEV-MTase [5])
1 | O=C(O)CCc1ccc(O)cc1 [Compound 1, 3-(4-hydroxyphenyl)propionic acid] | decrease in ORF2 expression | ~ 25% | without any cytotoxic effects | > 1000 | prevents Influenza virus propagation | 77.1 ± 18.7 | showed the inhibition of HEV Replicon | significantly reduced | ~95 | ~2 | 0.932 ± 0.15 | maximum inhibition among all the inhibitors; also recorded: inhibited the MTase activity
2 | O=C(O)Cc1ccc(O)cc1 [Compound 2, 2-(4-hydroxyphenyl)acetate] |  |  |  |  |  |  |  |  |  |  |  | inhibited the MTase activity
3 | CO[C@H]1O[C@H](CO)[C@@H](O)[C@H](O)[C@@H]1O [Compound 6, (2R,3S,4S,5S,6S)-2-(hydroxymethyl)-6-methoxyoxane-3,4,5-triol] |  |  |  |  |  |  |  |  |  |  |  | inhibited the MTase activity

Source: PMC9415367 (Viruses, 2022)
